For orientation: IC50 means the concentration at which inhibition is half-maximal. Lower therefore signals inhibition by little substance.

T1 sequence (P35968 834-1162 limits assumed): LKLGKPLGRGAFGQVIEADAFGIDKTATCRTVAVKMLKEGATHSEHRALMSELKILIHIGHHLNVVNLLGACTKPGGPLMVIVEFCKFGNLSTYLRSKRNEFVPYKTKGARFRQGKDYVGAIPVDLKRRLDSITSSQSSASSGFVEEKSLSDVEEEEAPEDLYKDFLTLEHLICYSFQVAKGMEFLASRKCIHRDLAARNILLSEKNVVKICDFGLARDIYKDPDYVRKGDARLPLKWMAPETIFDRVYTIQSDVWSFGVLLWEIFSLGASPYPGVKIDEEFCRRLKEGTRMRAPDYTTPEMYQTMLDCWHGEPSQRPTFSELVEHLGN

The first test has as its target T1, KDR kinase domain (Homo sapiens, UniProt P35968).
T1 construct: The cytosolic kinase domain of KDR kinase was expressed as a 6His fusion protein in Sf9 insect cells; 6His; made in house; host or cells: Sf9 insect cells
The test can be described thus: KDR Assay (ELISA of poly(Glu4;Tyr1) phosphorylation). In kind it is biochemical. As to conditions: 3.3 µM ATP, 60 minutes at room temperature. The method, then: The cytosolic kinase domain of KDR kinase was expressed as a 6His fusion protein in Sf9 insect cells. The KDR kinase domain fusion protein was purified over a Ni++ chelating column. Ninety-six well ELISA plates were coated with 5 µg poly(Glu4;Tyr1) (Sigma Chemical Co., St Louis, MO) in 100 µl HEPES buffer (20 mM HEPES, pH 7.5, 150 mM NaCl, 0.02% Thimerosal) at 4° overnight. Before use, the plate was washed with HEPES, NaCl buffer and the plates were blocked with 1% BSA, 0.1% Tween 20 in HEPES, NaCl buffer.
Test compounds were serially diluted in 100% DMSO from 4 mM to 0.12 µM in half-log dilutions. These dilutions were further diluted twenty fold in H2O to obtain compound solutions in 5% DMSO. Following loading of the assay plate with 85 µl of assay buffer (20 mM HEPES, pH 7.5, 100 mM KCI, 10 mM MgCl2, 3 mM MnCl2, 0.05% glycerol, 0.005% Triton X-100, 1 mM -mercaptoethanol, with or without 3.3 µM ATP), 5 µl of the diluted compounds were added to a final assay volume of 100 µl. Final concentrations were between 10 µM, and 0.3 nM in 0.25% DMSO. The assay was initiated by the addition of 10µl (30 ng) of KDR kinase domain.
The assay was incubated with test compound or vehicle alone with gentle agitation at room temperature for 60 minutes. The wells were washed and phosphotyrosines (PY) were probed with an anti-phosphotyrosine (PY), mAb clone 4G10 (Upstate Biotechnology, Lake Placid, NY). PY/anti-PY complexes were detected with an anti-mouse IgG/HRP conjugate (Amersham International plc, Buckinghamshire, England). Phosphotyrosine was quantitated by incubating with 100 µl 3, 3', 5, 5' tetramethylbenzidine solution (Kirkegaard and Perry, TMB Microwell 1 Component peroxidase substrate). Color development was arrested by the addition of 100 µl 1% HCl-based stop solution (Kirkegaard and Perry, TMB I Component Stop Solution).
Optical densities were determined spectrophotometrically at 450 nm in a 96-well plate reader, SpectraMax 250 (Molecular Devices). Background (no ATP in assay) OD values were subtracted from all ODs and the percent inhibition was calculated according to the equation: % Inhibition = ((OD(vehicle control)-OD(with compound)) × 100)/(OD(vehicle control)-OD(no ATP added)) [formula]
For `Cc1ccc(Nc2nnc(Nc3ccc4ncsc4c3)c3ccccc23)cc1F` [Example 104], the IC50 was no more than 100 nM.

Molecule `c1ccc2c(Nc3ccc4ncsc4c3)nnc(Nc3ccc(N4CCCCC4)cc3)c2c1` [Example 99] displayed an IC50 of 100 to 1000 nM.

Regarding `c1ccc2c(Nc3ccc4ncsc4c3)ncc(Sc3ccncc3)c2c1` [Example 3, 1-(benzothiazol-6-ylamino)-4-(4-pyridylthio)isoquinolin], the IC50 was in the range of 100 to 1000 nM. Still for that read-out and setting: next, `CNC(=O)c1cc(COc2nnc(Nc3ccc(N4CCOCC4)cc3)c3ccoc23)ccn1` [Example 46]: 100 to 1000 nM; `Cc1ccc(Nc2nnc(Nc3ccc4ncsc4c3)c3sccc23)cc1F` [Example 79]: 100 to 1000 nM. Same read-out and setting: in the case of `c1ccc2c(Nc3ccc4ncsc4c3)nnc(Nc3ccc4ncsc4c3)c2c1` [Example 93] it was no more than 100 nM. Still for that read-out and setting: in the case of `CNC(=O)c1cc(COc2nnc(Nc3ccc(F)cc3)c3ccsc23)ccn1` [Example 67] it was 100 to 1000 nM. The molecule `CNC(=O)c1cc(COc2nnc(Nc3cccc(Cl)c3)c3ccoc23)ccn1` [Example 35] yielded an IC50 of 100 to 1000 nM. On the same count and under the same terms, in the case of `c1ccc2c(Nc3ccc4ncsc4c3)ncc(Cc3ccncc3)c2c1` [Example 5, 1-(benzothiazol-6-ylamino)-4-(4-pyridylmethyl)-isoquinoline] it was 100 to 1000 nM; in that of `c1nc2ccc(Nc3nnc(Nc4ccc5c(c4)CCC5)c4ccsc34)cc2s1` [Example 18, 4-(indan-5-ylamino)-7-(benzothiazol-6-ylamino)thieno-[2,3-d]pyridazine], no more than 100 nM. Same read-out and setting: next, `c1cc2c(Nc3ccc4[nH]ncc4c3)nnc(Nc3ccc4[nH]ncc4c3)c2s1` [Example 27]: 100 to 1000 nM; `OCc1cc(COc2nnc(Nc3ccc(Cl)cc3)c3ccoc23)ccn1` [Example 64]: 100 to 1000 nM. On the same count and under the same terms, next, `COc1ccc(Nc2nnc(OCc3ccncc3)c3occc23)cc1` [Example 21, 4-(4-methoxyphenylamino)-7-(4-pyridylmethoxy)furo-[2,3-d]pyridazine]: 100 to 1000 nM; `CNC(=O)c1cc(COc2nnc(Nc3ccccc3OC)c3ccoc23)ccn1` [Example 50]: 100 to 1000 nM; `Clc1ccc(Nc2nnc(Nc3ccc4ncsc4c3)c3occc23)cc1` [Example 48]: 100 to 1000 nM. As to `CCN(c1ccc(Nc2nnc(Nc3ccc4ncsc4c3)c3ccccc23)cc1)C(C)C` [Example 100], the IC50 was 100 to 1000 nM. On the same count and under the same terms, in the case of `CNC(=O)c1cc(COc2nnc(Nc3ccc(N(C)C(C)=O)cc3)c3ccoc23)ccn1` [Example 45] it was 100 to 1000 nM; in that of `CNC(=O)c1cc(COc2nnc(Nc3ccc4[nH]ncc4c3)c3ccoc23)ccn1` [Example 55], 100 to 1000 nM; in that of `c1cc2c(Nc3ccc4ncsc4c3)nnc(Nc3ccc4ncsc4c3)c2o1` [Example 28], 100 to 1000 nM. On the same count and under the same terms, in the case of `CN(C)CCNC(=O)c1cc(COc2nnc(Nc3ccc(Cl)cc3)c3ccoc23)ccn1` [Example 82A] it was 100 to 1000 nM; in that of `CNC(=O)c1cc(COc2nnc(Nc3ccc(F)c(Cl)c3)c3ccoc23)ccn1` [Example 36], 100 to 1000 nM. Same read-out and setting: in the case of `Oc1ccc(Nc2nnc(OCc3ccncc3)c3occc23)cc1` [Example 58] it was 100 to 1000 nM. Take `O=C(c1cc(COc2nnc(Nc3ccc(Cl)cc3)c3ccoc23)ccn1)N1CCOCC1` [Example 61]: the IC50 was 100 to 1000 nM. Still for that read-out and setting: in the case of `Clc1ccc(Nc2nnc(Nc3ccc4nc[nH]c4c3)c3ccccc23)cc1` [Example 95] it was 100 to 1000 nM.

The target of the next test is T2, NIH3T3 cells expressing the full length KDR receptor (Homo sapiens, UniProt P35968).
T2 construct: NIH3T3 cells expressing the full length KDR receptor; expressed in transfected cells; host or cells: NIH3T3 cells (G418 selection)
T2 sequence (P35968 20-1356): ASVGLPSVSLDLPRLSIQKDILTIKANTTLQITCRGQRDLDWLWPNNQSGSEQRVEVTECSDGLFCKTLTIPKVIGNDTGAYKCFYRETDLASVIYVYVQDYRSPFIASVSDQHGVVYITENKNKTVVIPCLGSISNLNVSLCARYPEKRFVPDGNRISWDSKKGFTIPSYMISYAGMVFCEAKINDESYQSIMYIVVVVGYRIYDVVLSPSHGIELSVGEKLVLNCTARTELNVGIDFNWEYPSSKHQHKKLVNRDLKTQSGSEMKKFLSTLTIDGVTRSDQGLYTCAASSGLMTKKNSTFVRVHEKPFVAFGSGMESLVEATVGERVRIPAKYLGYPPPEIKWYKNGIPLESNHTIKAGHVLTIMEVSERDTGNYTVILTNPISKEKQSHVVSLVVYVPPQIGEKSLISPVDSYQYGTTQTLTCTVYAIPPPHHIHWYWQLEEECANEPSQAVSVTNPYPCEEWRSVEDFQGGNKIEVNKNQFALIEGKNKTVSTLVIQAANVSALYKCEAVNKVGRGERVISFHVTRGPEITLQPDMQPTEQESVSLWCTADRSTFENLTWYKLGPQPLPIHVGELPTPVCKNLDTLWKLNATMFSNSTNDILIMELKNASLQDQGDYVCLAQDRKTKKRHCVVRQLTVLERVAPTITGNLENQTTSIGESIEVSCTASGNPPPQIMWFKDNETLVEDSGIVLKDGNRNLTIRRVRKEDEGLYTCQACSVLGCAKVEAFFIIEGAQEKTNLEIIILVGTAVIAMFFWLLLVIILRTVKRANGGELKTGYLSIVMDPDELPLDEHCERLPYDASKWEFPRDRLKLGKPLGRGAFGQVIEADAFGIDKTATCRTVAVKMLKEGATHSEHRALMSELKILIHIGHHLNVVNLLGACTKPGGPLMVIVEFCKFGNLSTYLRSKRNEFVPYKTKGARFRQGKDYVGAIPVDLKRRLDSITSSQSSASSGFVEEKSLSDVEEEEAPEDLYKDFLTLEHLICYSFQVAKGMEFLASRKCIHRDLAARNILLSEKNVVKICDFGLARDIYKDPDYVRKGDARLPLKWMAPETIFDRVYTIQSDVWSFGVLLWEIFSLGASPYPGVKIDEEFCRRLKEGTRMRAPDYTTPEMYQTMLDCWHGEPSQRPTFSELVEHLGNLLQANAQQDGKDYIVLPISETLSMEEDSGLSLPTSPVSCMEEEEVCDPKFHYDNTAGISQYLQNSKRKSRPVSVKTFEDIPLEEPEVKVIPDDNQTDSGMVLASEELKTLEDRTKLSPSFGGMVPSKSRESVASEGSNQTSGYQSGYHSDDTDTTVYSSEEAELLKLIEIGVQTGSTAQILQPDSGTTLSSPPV
The test can be described thus: Cell mechanistic assay - Inhibition of 3T3 KDR phosphorylation. The class given is cell-based. Particulars: VEGF (30 ng / ml) stimulated KDR phosphorylation in NIH3T3 cells, 30 minutes preincubation. The method, then:
NIH3T3 cells expressing the full length KDR receptor were grown in DMEM (Life Technologies, Inc., Grand Island, NY) supplemented with 10% newborn calf serum, low glucose, 25 mM /L sodium pyruvate, pyridoxine hydrochloride and 0.2 mg/ ml of G418 (Life Technologies Inc., Grand Island, NY). The cells were maintained in collagen I-coated T75 flasks (Becton Dickinson Labware, Bedford, MA) in a humidified 5% CO2 atmosphere at 37°C.
Fifteen thousand cells were plated into each well of a collagen 1-coated 96-well plate in the DMEM growth medium. Six hours later, the cells were washed and the medium was replaced with DMEM without serum. After overnight culture to quiesce the cells, the medium was replaced by Dulbecco's phosphate-buffered saline (Life Technologies Inc., Grand Island, NY) with 0.1 % bovine albumin (Sigma Chemical Co., St Louis, MO). After adding various concentrations (0-300 nM) of test compounds to the cells in 1% final concentration of DMSO, the cells were incubated at room temperature for 30 minutes. The cells were then treated with VEGF (30 ng / ml) for 10 minutes at room temperature. Following VEGF stimulation, the buffer was removed and the cells were lysed by addition of 150 µl of extraction buffer (50 mM Tris, pH 7.8, supplemented with 10% glycerol, 50 mM BGP, 2 mM EDTA, 10 mM NaF, 0.5 mM NaVO4, and 0.3% TX-100) at 4°C for 30 minutes.
To assess receptor phosphorylation, 100 microliters of each cell lysate was added to the wells of an ELISA plate precoated with 300 ng of antibody C20 (Santa Cruz Biotechnology, Inc., Santa Cruz , CA). Following a 60-minute incubation, the plate was washed and bound KDR was probed for phosphotyrosine using an anti-phosphotyrosine mAb clone 4G10 (Upstate Biotechnology, Lake Placid, NY). The plate was washed and wells were incubated with anti-mouse IgG/HRP conjugate (Amersham International plc, Buckinghamshire, England) for 60 minutes. Wells were washed and phosphotyrosine was quantitated by addition of 100 µl per well of 3,3',5,5' tetramethylbenzidine (Kirkegaard and Perry, TMB Microwell 1 Component peroxidase substrate) solution. Color development was arrested by the addition of 100 µl 1% HCl based stop solution (Kirkegaard and Perry, TMB 1 Component Stop Solution).
Optical densities (OD) were determined spectrophotometrically at 450 nm in a 96-well plate reader (SpectraMax 250, Molecular Devices). Background (no VEGF added) OD values were subtracted from all ODs and percent inhibition was calculated according to the equation: % Inhibition = ((OD(VEGF control)-OD(with test compound)) × 100)/(OD(VEGF control)-OD(no VEGF added)) [formula]
IC50s were determined on some of the exemplary materials with a least squares analysis program using compound concentration versus percent inhibition. Compounds that have IC50 ≤ 20 nM in this assay include those of Examples 2, 6, 10, 11, 14, 23, 96, 101, 102, 103, 104, 105. Compounds that have IC50 values between 20 nM and 50 nM include those of examples 1, 4, 8, 9, 12, 13, 17, 24, 93, 98. Compounds that have IC50 values between 50 nM and 400 nM include those of examples 97, 99, and 100.
`CNC(=O)c1cc(Cc2cnc(Nc3ccc(Cl)cc3)c3ccccc23)ccn1` [Example 13, 1-(4-chlorophenylamino)-4-(2-methylaminocarbonyl-4-pyridylmethyl)isoquinoline]: the IC50 lay within 20 to 50 nM. `Cc1ccc(Nc2nnc(Nc3ccc4ncsc4c3)c3ccccc23)cc1F` [Example 104] came in with an IC50 of no more than 20 nM. Take `c1ccc2c(Nc3ccc4ncsc4c3)nnc(Nc3ccc(N4CCCCC4)cc3)c2c1` [Example 99]: the IC50 is 50 to 400 nM.

The molecule `FC1(F)Oc2ccc(Nc3nnc(Nc4ccc5ncsc5c4)c4ccccc34)cc2O1` [Example 98] gave an IC50 of 20 to 50 nM. The same measure, in the same setting: next, `Clc1ccc(Nc2ncc(Cc3ccncc3)c3ccccc23)cc1` [Example 4, 1-(4-chlorophenylamino)-4-(4-pyridylmethyl)isoquinoline]: 20 to 50 nM; `c1ccc2c(Nc3ccc4ncsc4c3)nnc(Nc3ccc4ncsc4c3)c2c1` [Example 93]: 20 to 50 nM. Same read-out and setting: in the case of `Brc1ccc2c(c1)CCN2c1nnc(Nc2ccc3ncsc3c2)c2ccccc12` [Example 97] it was 50 to 400 nM; in that of `Clc1ccc(Nc2ncc(Sc3ccncc3)c3ccccc23)cc1` [Example 1, 1-(4-chlorophenylamino)-4-(4-pyridylthio)isoquinolinc], 20 to 50 nM; in that of `CCN(c1ccc(Nc2nnc(Nc3ccc4ncsc4c3)c3ccccc23)cc1)C(C)C` [Example 100], 50 to 400 nM. On the same count and under the same terms, next, `NC(=O)c1cc(Cc2cnc(Nc3ccc(Cl)cc3)c3ccccc23)ccn1` [Example 12, 1-(4-chlorophenylamino)-4-(2-aminocarbonyl-4-pyridylmethyl)isoquinolin]: 20 to 50 nM; `Clc1ccc(Nc2nnc(Nc3ccc4ncsc4c3)c3sccc23)cc1` [Example 17, 4-(4-chlorophenylamino)-7-(benzothiazol-6-ylamino)thieno[2,3-d]pyridazine]: 20 to 50 nM.

For the origin of these results see patent EP1228063B1, “SUBSTITUTED PYRIDINES AND PYRIDAZINES WITH ANGIOGENESIS INHIBITING ACTIVITY” (BAYER CORPORATION, priority 1999, dated 2001).
